Source: PubChem BioAssay AID330 (DTP/NCI, 2004)
Several values for one entry are separate records, joined by “and”; a condition that tells them apart may be missing. Identical values can stand only once. Inconclusive results and toxic doses are left out. The calls were made as follows: active = survival T/C of 150% or more; inactive = T/C below 125% in these data.

Tested on: P388 leukemia ip, CD2F1 mice, survival T/C
Assay: NCI In Vivo Anticancer Drug Screen. Data for tumor model P388 Leukemia (intraperitoneal) in CD2F1 (CDF1) mice
Conditions: endpoint: median survival time, higher = longer survival
How it was run: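 Mice carrying the transplanted tumor received test compound or vehicle. Survival was recorded in each group, and the value is the treated-group measurement divided by that of the vehicle-treated control group.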

[1] = dose: 50.0 mg/kg/injection, schedule: Q01DX009 (ip), vehicle: Klucel (hydroxypropylcellulose) (HPC)
[2] = dose: 100.0 mg/kg/injection, schedule: Q01DX009 (ip), vehicle: Klucel (hydroxypropylcellulose) (HPC)
[3] = dose: 200.0 mg/kg/injection, schedule: Q01DX009 (ip), vehicle: Klucel (hydroxypropylcellulose) (HPC)
[4] = dose: 100.0 mg/kg/injection, schedule: Q01DX009 (ip), vehicle: saline with Tween-80
[5] = dose: 200.0 mg/kg/injection, schedule: Q01DX009 (ip), vehicle: saline with Tween-80
[6] = dose: 50.0 mg/kg/injection, schedule: Q01DX005 (ip), vehicle: saline with Tween-80
[7] = dose: 100.0 mg/kg/injection, schedule: Q01DX005 (ip), vehicle: saline with Tween-80
[8] = dose: 50.0 mg/kg/injection, schedule: Q01DX009 (ip), vehicle: saline with Tween-80
[9] = dose: 100.0 mg/kg/injection, schedule: Q04DX003 (ip), vehicle: Klucel (hydroxypropylcellulose) (HPC)
[10] = dose: 200.0 mg/kg/injection, schedule: Q04DX003 (ip), vehicle: Klucel (hydroxypropylcellulose) (HPC)
[11] = dose: 400.0 mg/kg/injection, schedule: Q04DX003 (ip), vehicle: Klucel (hydroxypropylcellulose) (HPC)

Measured: T/C

CCCCCCCCCCCCCCCCCC[N+]1(CC)CCCCC1
inactive: dose: 0.04 mg/kg/injection, schedule: Q01DX009 (ip), vehicle: saline 95 % of control | dose: 0.09 mg/kg/injection, schedule: Q01DX009 (ip), vehicle: saline 92 % of control | dose: 0.19 mg/kg/injection, schedule: Q01DX009 (ip), vehicle: saline 103 % of control and 118 % of control | dose: 0.39 mg/kg/injection, schedule: Q01DX009 (ip), vehicle: saline 113 % of control and 120 % of control | dose: 0.78 mg/kg/injection, schedule: Q01DX009 (ip), vehicle: saline 99 % of control

O=C(Nc1ccccc1Cl)Oc1ccc(Cl)cc1Cl
inactive: [1] 101 % of control | [2] 110 % of control | [3] 106 % of control

COc1cc(C2(c3ccc(O)c(OC)c3)CCCCC2)ccc1O
inactive: [1] 100 % of control | [2] 100 % of control | [3] 100 % of control

Cc1coc2c1C(OC(=O)C(C)C)C1(C)C(C)CCC(O)C1C2=O (stereo not drawn)
inactive: dose: 1.56 mg/kg/injection, schedule: Q01DX009 (ip), vehicle: saline with Tween-80 100 % of control | dose: 3.13 mg/kg/injection, schedule: Q01DX009 (ip), vehicle: saline with Tween-80 96 % of control | dose: 6.25 mg/kg/injection, schedule: Q01DX009 (ip), vehicle: saline with Tween-80 93 % of control | dose: 12.5 mg/kg/injection, schedule: Q01DX009 (ip), vehicle: Klucel (hydroxypropylcellulose) (HPC) 94 % of control | dose: 12.5 mg/kg/injection, schedule: Q01DX009 (ip), vehicle: saline with Tween-80 109 % of control | [1] 97 % of control | [2] 114 % of control

C=C1C(=O)OC2CC(C)CCC/C(CO)=C/C(OC(=O)/C(=C/CO)CO)C12 (stereo not drawn)
inactive: dose: 7.0 mg/kg/injection, schedule: Q01DX005 (ip), vehicle: saline 98 % of control | dose: 14.0 mg/kg/injection, schedule: Q01DX005 (ip), vehicle: saline 101 % of control | dose: 28.0 mg/kg/injection, schedule: Q01DX005 (ip), vehicle: saline 114 % of control

COc1c2ccoc2nc2c(O)c3c(c(CC=C(C)C)c12)OCO3
inactive: dose: 1.5 mg/kg/injection, schedule: Q01DX005 (ip), vehicle: Klucel (hydroxypropylcellulose) (HPC) 102 % of control | dose: 3.0 mg/kg/injection, schedule: Q01DX005 (ip), vehicle: Klucel (hydroxypropylcellulose) (HPC) 104 % of control | dose: 6.0 mg/kg/injection, schedule: Q01DX005 (ip), vehicle: Klucel (hydroxypropylcellulose) (HPC) 103 % of control | dose: 11.88 mg/kg/injection, schedule: Q01DX005 (ip), vehicle: Klucel (hydroxypropylcellulose) (HPC) 86 % of control | dose: 12.0 mg/kg/injection, schedule: Q01DX005 (ip), vehicle: Klucel (hydroxypropylcellulose) (HPC) 96 % of control | dose: 47.5 mg/kg/injection, schedule: Q01DX005 (ip), vehicle: Klucel (hydroxypropylcellulose) (HPC) 86 % of control

CCOC(=O)C(C(=O)OCC)c1c[n+]([O-])c2ccccc2c1[N+](=O)[O-]
inactive: [4] 104 % of control | dose: 100.0 mg/kg/injection, schedule: Q04DX003 (ip), vehicle: saline with Tween-80 109 % of control | [5] 100 % of control | dose: 200.0 mg/kg/injection, schedule: Q04DX003 (ip), vehicle: saline with Tween-80 104 % of control | dose: 400.0 mg/kg/injection, schedule: Q01DX009 (ip), vehicle: saline with Tween-80 100 % of control | dose: 400.0 mg/kg/injection, schedule: Q04DX003 (ip), vehicle: saline with Tween-80 95 % of control

C[C@]12C=CC(=O)C=C1CC[C@@H]1[C@@H]2CC[C@@]2(C)[C@H]1CC[C@]2(C)O
inactive: [6] 97 % of control | [7] 95 % of control | [2] 110 % of control | [3] 90 % of control

CCOC(=O)C(N=Nc1ccccc1)/N=N\c1nn[nH]n1 (stereo not drawn)
inactive: dose: 50.0 mg/kg/injection, schedule: Q01DX001 (ip), vehicle: Klucel (hydroxypropylcellulose) (HPC) 91 % of control | dose: 100.0 mg/kg/injection, schedule: Q01DX001 (ip), vehicle: Klucel (hydroxypropylcellulose) (HPC) 91 % of control | dose: 200.0 mg/kg/injection, schedule: Q01DX001 (ip), vehicle: Klucel (hydroxypropylcellulose) (HPC) 91 % of control

Cc1nc2nc[nH]n2c1N=Nc1ccccc1
inactive: dose: 60.0 mg/kg/injection, schedule: Q01DX005 (ip), vehicle: Klucel (hydroxypropylcellulose) (HPC) 98 % of control | dose: 120.0 mg/kg/injection, schedule: Q01DX005 (ip), vehicle: Klucel (hydroxypropylcellulose) (HPC) 95 % of control | dose: 240.0 mg/kg/injection, schedule: Q01DX005 (ip), vehicle: Klucel (hydroxypropylcellulose) (HPC) 107 % of control

COc1cccc2c1ccc1nonc12
inactive: [6] 95 % of control | [7] 88 % of control | dose: 200.0 mg/kg/injection, schedule: Q01DX005 (ip), vehicle: saline with Tween-80 86 % of control

Cn1c(CCC(=O)O)c(CC(=O)O)c2ccccc21
inactive: dose: 100.0 mg/kg/injection, schedule: Q04DX002 (ip), vehicle: saline with Tween-80 99 % of control | dose: 200.0 mg/kg/injection, schedule: Q04DX002 (ip), vehicle: saline with Tween-80 97 % of control | dose: 400.0 mg/kg/injection, schedule: Q04DX002 (ip), vehicle: saline with Tween-80 108 % of control

CC1(C)OC1CS(=O)c1ccccc1 (stereo not drawn)
inactive: [8] 101 % of control | dose: 66.0 mg/kg/injection, schedule: Q01DX009 (ip), vehicle: saline with Tween-80 99 % of control | [4] 99 % of control and 121 % of control | [5] 114 % of control

CN1CC2OC2(c2ccccc2)C(c2ccccc2)C1 (stereo not drawn)
inactive: [6] 102 % of control | [7] 102 % of control

CCNc1ncnc2c1cnn2C
inactive: dose: 25.0 mg/kg/injection, schedule: Q01DX009 (ip), vehicle: saline sonified 109 % of control | dose: 50.0 mg/kg/injection, schedule: Q01DX009 (ip), vehicle: saline sonified 113 % of control | dose: 50.0 mg/kg/injection, schedule: Q04DX003 (ip), vehicle: saline sonified 112 % of control | dose: 100.0 mg/kg/injection, schedule: Q04DX003 (ip), vehicle: saline sonified 104 % of control | dose: 200.0 mg/kg/injection, schedule: Q04DX003 (ip), vehicle: saline sonified 116 % of control

COCC1(C)CCCC2(C)C3=C(CCC(=O)C3)CCC12 (stereo not drawn)
inactive: [9] 99 % of control | [10] 101 % of control | [11] 96 % of control

CC(C)(C)C1(C#N)C(=O)N(c2ccc(N3C(=O)C(C#N)(C(C)(C)C)C34c3ccccc3-c3ccccc34)cc2)C12c1ccccc1-c1ccccc12 (stereo not drawn)
inactive: [9] 93 % of control | [10] 93 % of control | [11] 91 % of control

O=C(NC(=O)C(F)(F)F)Nc1ccc(Cl)cc1
inactive: [8] 99 % of control | [4] 105 % of control

C/C=C(\C)C(=O)OC1C2C(C)=CC(O)C(O)C2(C)C2C3(O)OCC24C(CC(=O)OC14)C(C)C3O (stereo not drawn)
inactive: dose: 0.25 mg/kg/injection, schedule: Q01DX009 (ip), vehicle: Klucel (hydroxypropylcellulose) (HPC) 109 % of control | dose: 0.5 mg/kg/injection, schedule: Q01DX009 (ip), vehicle: Klucel (hydroxypropylcellulose) (HPC) 101 % of control | dose: 1.0 mg/kg/injection, schedule: Q01DX009 (ip), vehicle: Klucel (hydroxypropylcellulose) (HPC) 104 % of control | dose: 2.0 mg/kg/injection, schedule: Q01DX009 (ip), vehicle: Klucel (hydroxypropylcellulose) (HPC) 104 % of control

Cn1c(=O)c2c(nnc(-c3ccc(Cl)c(Cl)c3)[n+]2[O-])n(C)c1=O
inactive: dose: 25.0 mg/kg/injection, schedule: Q01DX001 (ip), vehicle: Klucel (hydroxypropylcellulose) (HPC) 103 % of control
